Read-outs that look alike come from different tables or passages of the source.
Legend:
[1] = tested on: p-EGFR in H1975 cells (L858R/T790M double mutant EGFR)
[2] = tested on: p-EGFR in A431 cells (wild type EGFR, EGF stimulated); experiment: Wild type EGFR A431 autophosphorylation inhibition assay (ELISA); type: cell-based, human; details: 2 h treatment, EGF stimulation 10 min
Protocol: (§1) Cellular EGFR Autophosphorylation Assays.
Wild Type EGFR A431 Autophosphorylation Inhibition Assay (ELISA).
After 2 hour treatment with test compounds, add 4.5 μL of EGF (1 μg/mL) into each well and stimulate for 10 min. The rest of the procedure was processed in the same manner as described above for H1975 cells.

[3] = tested on: H1975 cells (DM); experiment: H1975 inhibition assay (cell proliferation), Method B; type: cell-based; details: cellular proliferation, several runs
[4] = tested on: A431 cells (WT); experiment: A431 inhibition assay (cell proliferation), Method B; type: cell-based, human; details: cellular proliferation, several runs
Protocol: Cell Proliferation Assays—Method B
A431 Inhibition Assay, (Cell Proliferation).
The rest procedure was conducted in the same manner as described above for H1975 cells.

[5] = tested on: p-EGFR in PC9 cells (Exon 19 deletion EGFR); experiment: Exon19 deletion EGFR (activating single mutant) PC-9 cellular autophosphorylation assay; type: cell-based, human; details: 2 h treatment, ELISA
Protocol: as §1
The human lung cell line PC9 (Exon 19 deletion EGFR) is obtained from the American type Culture Collection. […] Cells are grown in a humidified incubator at 37° C. with 5% CO2, Assays to measure cellular phosphorylation of endogenous p-EGFR in cell Iysates are carried out according to the protocol described in the R&D Systems DuoSet IC Human Phospho-EGF R ELISA (R&D Systems catalogue number #DYCI095). 40 μL of cells are seeded (10000 cells/well) in growth medium in Corning black, clear-bottomed 384-well plates and incubated at 37° C., with 5%0/CO2 overnight. […] Plates are incubated for a further 2 h, then following aspiration of medium, 40 μL×lysis buffer is added to each well. Greiner black high bind 384 well plates are coated with capture antibody and then blocked with 3% BSA. Following removal of block, 15 μL of lysate are transferred to the Greiner black high bind 384 well plates and incubated for 2 hours. Following aspiration and washing of the plates with PBS, 20 μL of detection antibody are added and incubated for 2 hours. […] The data obtained with each compound are exported into a suitable software package (such as Origin) to perform curve fitting analysis.

[6] = tested on: PC9 cells (SM); experiment: PC-9 growth inhibition assay (cell proliferation), Method B; type: cell-based, human; details: cellular proliferation, several runs
[7] = molecular target: T1, INSR (Homo sapiens, UniProt P06213); experiment: INSR inhibition assay (Caliper EZ Reader); type: biochemical; details: enzyme assay
T1 construct: purchased CARNA BIOSCIENCE 08-142
Protocol: (§2) Test compound was dissolved in DMSO at 30 mM. […] 20 nL of these compounds DMSO dilutes were dispensed into a new 384-well assay plate by Echo 550. […] 15 uL of kinase assay buffer containing INSR protein and substrate was transferred to assay plate and incubate at RT for 30 minutes. Kinase assay buffer supplemented with substrate peptides was employed as low control to monitor the background. 40 LM ATP was prepared in kinase assay buffer containing and 5 μL of ATP solution was added to each well to start the reaction. The assay plate was incubated at 25° C. for 180 minutes and the reaction was stopped by adding 40 μL of 0.5 M EDTA.
The result is analyzed in the same manner of […].

[8] = molecular target: T2, IGF-1R (Homo sapiens, UniProt P08069); experiment: IGF-1R inhibition assay (Caliper EZ Reader); type: biochemical; details: enzyme assay
T2 construct: purchased CARNA BIOSCIENCE 08-141
Protocol: as §2, with “IGF-1R” for “INSR”, “μM” for “LM”
Phosphorylated fluorescent-tagged peptides were differentiated from non-phosphorylated peptides by separating using Caliper EZ Reader II and the detection was directly converted to conversion ratio.

[9] = Homo sapiens, NCI-H1975, 2 h, read-out: H1975 IC50 (nM), cellular EGFR autophosphorylation, 2 h treatment, ELISA
[10] = Homo sapiens, A-431, cellular EGFR autophosphorylation
[11] = read-out: H1975 IC50, cellular EGFR autophosphorylation, 2 h treatment, ELISA
[12] = cellular EGFR autophosphorylation

T2 sequence (P08069 959-1367 limits assumed): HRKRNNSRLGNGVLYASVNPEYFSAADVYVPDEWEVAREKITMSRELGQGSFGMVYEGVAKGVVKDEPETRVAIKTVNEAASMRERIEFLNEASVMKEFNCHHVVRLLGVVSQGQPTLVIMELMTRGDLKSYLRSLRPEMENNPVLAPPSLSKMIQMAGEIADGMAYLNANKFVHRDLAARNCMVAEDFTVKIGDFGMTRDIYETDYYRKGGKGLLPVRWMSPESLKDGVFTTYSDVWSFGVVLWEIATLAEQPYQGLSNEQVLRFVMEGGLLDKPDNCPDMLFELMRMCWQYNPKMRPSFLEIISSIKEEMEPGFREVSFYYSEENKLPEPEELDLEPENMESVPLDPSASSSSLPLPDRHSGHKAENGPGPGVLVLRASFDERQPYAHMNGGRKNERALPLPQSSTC
T1 sequence (P06213 989-1382 limits assumed): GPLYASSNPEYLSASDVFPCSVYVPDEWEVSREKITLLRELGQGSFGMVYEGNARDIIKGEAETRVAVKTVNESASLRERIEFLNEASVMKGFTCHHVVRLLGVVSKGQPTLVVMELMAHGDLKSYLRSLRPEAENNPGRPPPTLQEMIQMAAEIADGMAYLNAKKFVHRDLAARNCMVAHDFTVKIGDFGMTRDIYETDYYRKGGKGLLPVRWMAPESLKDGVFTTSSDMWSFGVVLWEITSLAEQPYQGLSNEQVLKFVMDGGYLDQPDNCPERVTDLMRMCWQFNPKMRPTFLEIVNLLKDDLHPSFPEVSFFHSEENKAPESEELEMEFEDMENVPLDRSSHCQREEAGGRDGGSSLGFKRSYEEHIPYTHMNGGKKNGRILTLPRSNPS

Structure (SMILES) | IC50 [1, 9] [nM] | IC50 [2, 10] [µM] | IC50 ([3]; Homo sapiens, NCI-H1975, 72 h) [µM] | IC50 ([4]; Homo sapiens, A-431, 72 h) [µM] | IC50 ([5]; Homo sapiens, PC-9, 2 h) [µM] | IC50 ([6]; Homo sapiens, PC-9, 72 h) [µM] | IC50 [1, 11] [nM] | IC50 [2, 12] [µM] | IC50 ([3]; 72 h) [µM] | IC50 ([4]; 72 h) [µM] | IC50 [5] [µM] | IC50 ([6]; 72 h) [µM] | IC50 [7] [nM] | IC50 [8] [nM]
C=CC(=O)N1CC[C@@H](Oc2nc(Nc3ccc(N4CCC(N5CCN(C)CC5)CC4)cc3)c(C(N)=O)nc2CC)C1 [ASP8273] | 7.8 | 0.218 | 0.0121 | 0.675 | 0.0373 | 0.0159 | – | – | – | – | – | – | – | –
Cc1cc(C(=O)Nc2nc3cccc(Cl)c3n2[C@@H]2CCCCN(C(=O)/C=C/CN(C)C)C2)ccn1 [EGF 816] | – | – | – | – | – | – | 43.7 | 0.276 | 0.0779 | 2.85 | 0.0254 | 0.0673 | – | –
C=CC(=O)Nc1cc(Nc2nccc(-c3c[nH]c4c(OC)nccc34)n2)c(OC)cc1N(C)CCN(C)C [Example 23, N-(2-((2-(Dimethylamino)ethyl)(methyl)amino)-4-methoxy-5-((4-(7-methoxy-1H-pyrrolo[2,3-c]pyridin-3-yl)pyrimidin-2-yl)amino)phenyl) acrylamide] | 1.15 | 0.0261 | 0.00246 | – | 0.00137 | 0.00382 | – | – | 0.00263 | – | – | 0.00338 | 325 | 271
C=CC(=O)Nc1cc(Nc2nccc(-c3cnc(NC)c(C(C)=O)c3)n2)c(OC)cc1N(C)CCN(C)C [Example 27, N-(5-((4-(5-Acetyl-6-(methylamino)pyridin-3-yl)pyrimidin-2-yl)amino)-2-((2-(dimethylamino)ethyl)(methyl)amino)-4-methoxyphenyl) acrylamide] | 6.78 | 0.2 | 0.00992 | 1.62 | 0.0178 | 0.0134 | – | – | – | – | – | – | 13200 | 4820
C=CC(=O)Nc1cc(Nc2nccc(-n3cc(C(C)=O)c4ccccc43)n2)c(OC)cc1N(C)CCN(C)C [Example 31, N-(5-((4-(3-Acetyl-1H-indol-1-yl)pyrimidin-2-yl)amino)-2-((2-(dimethylamino)ethyl)(methyl)amino)-4-methoxyphenyl) acrylamide] | 7.64 | 0.161 | 0.0139 | 1.07 | 0.0137 | 0.00854 | – | – | 0.0116 | 0.942 | – | 0.00839 | 814 | 765
C=CC(=O)Nc1cc(Nc2nccc(-n3nc(NCC)c4ccccc43)n2)c(OC)cc1N(C)CCN(C)C [Example 41] | 11.9 | 0.137 | 0.00923 | 0.295 | 0.00626 | 0.00752 | – | – | – | – | – | – | 1270 | 1420
C=CC(=O)Nc1cc(Nc2nccc(-n3nc(NC(C)C)c4ccccc43)n2)c(OC)cc1N(C)CCN(C)C [Example 43] | 10.2 | 0.0734 | 0.00396 | 0.218 | 0.0103 | 0.0033 | – | – | – | – | – | – | – | –
C=CC(=O)Nc1cc(Nc2nccc(-n3nc(C(C)(C)O)c4ccccc43)n2)c(OC)cc1N(C)CCN(C)C [Example 45] | 3.83 | 0.0762 | 0.00261 | 0.461 | 0.0106 | 0.0044 | – | – | – | – | – | – | 1020 | 1270
C=CC(=O)Nc1cc(Nc2nccc(-n3nc(N(C)C)c4ncccc43)n2)c(OC)cc1N(C)CCN(C)C [Example 55, N-(5-(4-(3-(Dimethylamino)-1H-pyrazolo[4,3-b]pyridin-1-yl)pyrimidin-2-ylamino)-2-(N-(2-(dimethylamino)ethyl)-N-methylamino)-4-methoxyphenyl) acrylamide] | 4.07 | 0.106 | 0.00393 | 2.8 | 0.0155 | 0.00909 | – | – | – | – | – | – | 1200 | 1300
C=CC(=O)Nc1cc(Nc2nccc(-n3nc(NC)c4ncccc43)n2)c(OC)cc1N(C)CCN(C)C [Example 56, N-(5-(4-(3-(Methylamino)-1H-pyrazolo[4,3-b]pyridin-1-yl)pyrimidin-2-ylamino)-2-(N-(2-(dimethylamino)ethyl)-N-methylamino)-4-methoxyphenyl) acrylamide] | 6.28 | 0.0799 | 0.00277 | 0.511 | 0.00404 | 0.00166 | – | – | – | – | – | – | 433 | 637
C=CC(=O)Nc1cc(Nc2nccc(-c3cnc(OC)c4c3ccn4C)n2)c(OC)cc1N(C)CCN(C)C [Example 57, N-(5-(4-(7-Methoxy-1N-methyl-1H-pyrrolo[2,3-c]pyridin-4-yl)pyrimidin-2-ylamino)-2-(N-(2-(dimethylamino)ethyl)-N-methylamino)-4-methoxyphenyl) acrylamide] | 8.5 | 0.134 | 0.0051 | 0.267 | 0.014 | 0.00363 | – | – | – | – | – | – | 290 | 207
C=CC(=O)Nc1cc(Nc2nccc(-c3cc(C#N)c4[nH]cc(C)c4c3)n2)c(OC)cc1N(C)CCN(C)C [Example 67, N-(5-(4-(7-Cyano-3-methyl-1H-indol-5-yl)pyrimidin-2-ylamino)-2-((2-(dimethylamino)ethyl)(methyl)amino)-4-methoxyphenyl) acrylamide] | 1.06 | 0.11 | 0.00105 | 0.506 | 0.00476 | 0.00207 | – | – | – | – | – | – | 403 | 243
C=CC(=O)N[C@@H]1CN(c2nc(Nc3cn(C)nc3OC)c3ncn(C)c3n2)C[C@H]1F [PF-06747775] | – | – | – | – | – | – | 8 | 0.0782 | 0.0278 | 0.657 | 0.00749 | 0.0071 | – | –

Reference: patent US10435388B2, “Selective inhibitors of clinically important mutants of the EGFR tyrosine kinase” (CS PHARMATECH LIMITED, priority 2016, dated 2019)
